According to paper PMC4076210, “Discovery of Novel AKT Inhibitors with Enhanced Anti-Tumor Effects in Combination with the MEK Inhibitor” (PLoS ONE, 2014):
Like-named read-outs stand apart in the source and are kept apart here.

Columns and labels:
Format in all cases: biochemical
BrSK1(h) = target: T1, BrSK1(h) (Homo sapiens, UniProt Q8TDC3); assay: Kinase panel
T1 construct: purchased Millipore KinaseProfiler
T1 sequence (Q8TDC3 1-778): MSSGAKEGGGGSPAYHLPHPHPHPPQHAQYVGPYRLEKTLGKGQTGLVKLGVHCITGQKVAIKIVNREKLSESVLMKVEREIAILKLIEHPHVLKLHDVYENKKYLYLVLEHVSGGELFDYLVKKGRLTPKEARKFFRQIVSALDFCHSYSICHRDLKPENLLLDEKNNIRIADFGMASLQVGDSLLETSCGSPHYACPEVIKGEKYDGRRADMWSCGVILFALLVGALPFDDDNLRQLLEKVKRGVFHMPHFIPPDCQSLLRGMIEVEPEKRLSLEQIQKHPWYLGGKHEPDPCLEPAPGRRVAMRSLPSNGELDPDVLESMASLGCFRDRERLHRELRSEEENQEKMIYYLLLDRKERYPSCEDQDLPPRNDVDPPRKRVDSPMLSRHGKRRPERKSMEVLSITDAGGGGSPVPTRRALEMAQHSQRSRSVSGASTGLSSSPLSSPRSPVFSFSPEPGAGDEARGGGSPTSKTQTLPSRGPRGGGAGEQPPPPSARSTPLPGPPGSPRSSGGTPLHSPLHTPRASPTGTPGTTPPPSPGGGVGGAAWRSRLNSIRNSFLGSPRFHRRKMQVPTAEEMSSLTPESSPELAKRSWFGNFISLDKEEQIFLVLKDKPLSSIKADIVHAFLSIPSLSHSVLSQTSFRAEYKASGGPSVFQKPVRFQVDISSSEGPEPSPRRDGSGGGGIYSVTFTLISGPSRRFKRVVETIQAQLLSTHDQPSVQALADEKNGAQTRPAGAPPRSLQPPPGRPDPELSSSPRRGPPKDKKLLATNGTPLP

PKCε = PKCε (Homo sapiens, UniProt Q02156); assay: Kinase IC50 assay
CDK6/cyclinD3(h) = target: T2, CDK6/cyclinD3(h) (Homo sapiens, UniProt Q00534); assay: Kinase panel
T2 construct: purchased Millipore KinaseProfiler
T2 sequence (Q00534 whole entry): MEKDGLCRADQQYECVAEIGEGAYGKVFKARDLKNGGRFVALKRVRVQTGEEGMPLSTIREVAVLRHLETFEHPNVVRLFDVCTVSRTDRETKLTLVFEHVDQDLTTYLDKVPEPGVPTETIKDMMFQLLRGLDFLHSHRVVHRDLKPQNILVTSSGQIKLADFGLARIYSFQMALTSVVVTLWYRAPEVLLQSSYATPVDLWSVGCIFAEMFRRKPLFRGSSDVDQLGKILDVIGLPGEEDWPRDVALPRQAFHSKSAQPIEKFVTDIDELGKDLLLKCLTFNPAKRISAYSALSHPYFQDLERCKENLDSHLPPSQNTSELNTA
T2 sequence (P30281 whole entry partner): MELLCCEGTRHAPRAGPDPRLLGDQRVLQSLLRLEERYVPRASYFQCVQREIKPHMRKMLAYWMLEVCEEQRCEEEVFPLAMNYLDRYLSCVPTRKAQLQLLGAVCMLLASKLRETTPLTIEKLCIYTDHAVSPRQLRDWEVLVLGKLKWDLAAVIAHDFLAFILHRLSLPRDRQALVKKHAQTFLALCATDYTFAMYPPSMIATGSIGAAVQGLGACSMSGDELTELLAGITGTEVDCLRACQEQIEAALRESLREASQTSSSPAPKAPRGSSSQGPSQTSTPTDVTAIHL

PKCα(h) = target: T3, PKCα(h) (Homo sapiens, UniProt P17252); assay: Kinase panel
T3 construct: purchased Millipore KinaseProfiler

CaMKIIδ(h) = target: T4, CaMKIIδ(h) (Homo sapiens, UniProt Q13557); assay: Kinase panel
T4 construct: purchased Millipore KinaseProfiler
T4 sequence (Q13557 whole entry): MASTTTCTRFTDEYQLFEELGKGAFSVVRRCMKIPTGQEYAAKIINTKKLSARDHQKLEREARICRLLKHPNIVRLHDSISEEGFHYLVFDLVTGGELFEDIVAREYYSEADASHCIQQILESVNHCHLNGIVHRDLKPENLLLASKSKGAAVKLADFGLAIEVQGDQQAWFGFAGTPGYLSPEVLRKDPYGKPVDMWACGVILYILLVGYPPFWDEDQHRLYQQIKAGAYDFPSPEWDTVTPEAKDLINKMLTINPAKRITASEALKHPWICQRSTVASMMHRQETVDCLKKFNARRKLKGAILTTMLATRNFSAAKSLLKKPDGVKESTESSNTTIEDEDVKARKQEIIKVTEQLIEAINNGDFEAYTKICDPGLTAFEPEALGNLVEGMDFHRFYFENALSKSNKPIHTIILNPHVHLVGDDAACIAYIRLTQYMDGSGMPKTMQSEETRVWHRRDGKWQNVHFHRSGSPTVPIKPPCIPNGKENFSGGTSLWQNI

PKCη(h) = target: T5, PKCη(h) (Homo sapiens, UniProt P24723); assay: Kinase panel
T5 construct: purchased Millipore KinaseProfiler
T5 sequence (P24723 whole entry): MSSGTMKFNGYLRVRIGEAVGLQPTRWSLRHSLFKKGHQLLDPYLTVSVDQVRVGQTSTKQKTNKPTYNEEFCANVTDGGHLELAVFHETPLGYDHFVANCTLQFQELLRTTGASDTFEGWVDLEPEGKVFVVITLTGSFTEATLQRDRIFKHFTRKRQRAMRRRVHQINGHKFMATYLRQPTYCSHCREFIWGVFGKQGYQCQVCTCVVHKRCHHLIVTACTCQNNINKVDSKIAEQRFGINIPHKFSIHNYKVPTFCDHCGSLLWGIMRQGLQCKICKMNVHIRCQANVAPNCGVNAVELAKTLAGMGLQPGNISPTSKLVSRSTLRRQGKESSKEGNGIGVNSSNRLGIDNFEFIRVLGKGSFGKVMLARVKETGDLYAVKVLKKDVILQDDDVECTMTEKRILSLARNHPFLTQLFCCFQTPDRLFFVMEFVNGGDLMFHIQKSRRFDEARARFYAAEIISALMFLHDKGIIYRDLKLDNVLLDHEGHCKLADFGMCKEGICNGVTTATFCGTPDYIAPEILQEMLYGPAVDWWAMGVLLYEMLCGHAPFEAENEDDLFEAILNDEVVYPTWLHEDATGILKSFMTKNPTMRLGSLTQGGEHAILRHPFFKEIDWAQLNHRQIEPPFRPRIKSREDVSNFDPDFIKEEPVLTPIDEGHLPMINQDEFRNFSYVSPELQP

Flt1(h) = target: T6, Flt1(h) (Homo sapiens, UniProt P17948); assay: Kinase panel
T6 construct: purchased Millipore KinaseProfiler
T6 sequence (P17948 27-1338): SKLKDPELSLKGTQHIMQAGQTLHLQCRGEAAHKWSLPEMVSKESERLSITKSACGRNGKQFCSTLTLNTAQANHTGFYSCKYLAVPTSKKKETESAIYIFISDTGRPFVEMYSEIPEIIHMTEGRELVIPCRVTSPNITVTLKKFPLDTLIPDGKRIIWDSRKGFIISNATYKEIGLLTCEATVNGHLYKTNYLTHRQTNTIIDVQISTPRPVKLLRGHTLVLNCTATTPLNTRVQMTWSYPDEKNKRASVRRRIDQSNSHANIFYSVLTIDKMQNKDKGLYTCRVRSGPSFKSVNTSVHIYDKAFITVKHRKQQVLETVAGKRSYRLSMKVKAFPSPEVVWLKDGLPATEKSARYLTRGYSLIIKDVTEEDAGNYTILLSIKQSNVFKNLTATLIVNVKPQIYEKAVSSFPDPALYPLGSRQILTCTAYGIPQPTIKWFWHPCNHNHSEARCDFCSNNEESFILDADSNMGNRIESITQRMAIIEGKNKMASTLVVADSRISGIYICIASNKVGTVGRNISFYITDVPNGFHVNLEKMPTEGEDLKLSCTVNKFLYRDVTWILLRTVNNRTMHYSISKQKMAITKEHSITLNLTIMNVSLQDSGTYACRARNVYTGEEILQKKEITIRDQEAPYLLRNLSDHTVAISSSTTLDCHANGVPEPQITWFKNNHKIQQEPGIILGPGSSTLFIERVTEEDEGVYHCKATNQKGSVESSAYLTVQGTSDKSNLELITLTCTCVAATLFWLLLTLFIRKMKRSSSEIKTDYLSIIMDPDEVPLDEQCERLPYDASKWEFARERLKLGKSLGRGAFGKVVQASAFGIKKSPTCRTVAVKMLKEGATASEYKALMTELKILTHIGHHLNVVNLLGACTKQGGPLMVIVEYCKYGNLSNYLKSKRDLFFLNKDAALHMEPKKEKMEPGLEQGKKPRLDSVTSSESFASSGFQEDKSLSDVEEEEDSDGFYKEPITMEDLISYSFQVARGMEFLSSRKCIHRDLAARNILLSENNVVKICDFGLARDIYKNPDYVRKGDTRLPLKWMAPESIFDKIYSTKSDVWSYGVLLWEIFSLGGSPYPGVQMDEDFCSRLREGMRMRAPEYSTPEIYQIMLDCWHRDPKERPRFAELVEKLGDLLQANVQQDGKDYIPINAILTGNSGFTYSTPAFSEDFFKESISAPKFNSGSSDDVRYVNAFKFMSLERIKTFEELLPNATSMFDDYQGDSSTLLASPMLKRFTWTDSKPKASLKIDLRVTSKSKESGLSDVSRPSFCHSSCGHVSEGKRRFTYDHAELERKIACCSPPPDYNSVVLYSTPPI

PKCζ = PKCζ (Homo sapiens, UniProt Q05513); assay: Kinase IC50 assay
Sequence of PKCζ (Q05513 whole entry): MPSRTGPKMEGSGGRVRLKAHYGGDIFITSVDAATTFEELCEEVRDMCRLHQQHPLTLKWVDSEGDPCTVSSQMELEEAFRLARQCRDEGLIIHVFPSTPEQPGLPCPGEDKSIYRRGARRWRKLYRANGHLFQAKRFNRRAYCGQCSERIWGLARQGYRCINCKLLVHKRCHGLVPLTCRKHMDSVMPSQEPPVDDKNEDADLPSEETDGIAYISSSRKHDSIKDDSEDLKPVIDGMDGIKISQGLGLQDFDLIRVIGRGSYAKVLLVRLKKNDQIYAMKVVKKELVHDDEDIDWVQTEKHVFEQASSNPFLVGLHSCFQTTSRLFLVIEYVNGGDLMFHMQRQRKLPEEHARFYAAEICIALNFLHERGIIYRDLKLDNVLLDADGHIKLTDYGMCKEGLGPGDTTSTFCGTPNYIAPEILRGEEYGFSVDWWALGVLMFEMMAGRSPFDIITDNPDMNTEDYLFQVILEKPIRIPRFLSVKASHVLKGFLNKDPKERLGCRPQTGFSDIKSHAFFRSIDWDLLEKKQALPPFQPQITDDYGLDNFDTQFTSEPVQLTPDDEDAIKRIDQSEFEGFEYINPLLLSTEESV

PKG1β(h) = target: T7, PKG1β(h) (Homo sapiens, UniProt Q13976); assay: Kinase panel
T7 construct: purchased Millipore KinaseProfiler
T7 sequence (Q13976 1-686 isoform Q13976-2): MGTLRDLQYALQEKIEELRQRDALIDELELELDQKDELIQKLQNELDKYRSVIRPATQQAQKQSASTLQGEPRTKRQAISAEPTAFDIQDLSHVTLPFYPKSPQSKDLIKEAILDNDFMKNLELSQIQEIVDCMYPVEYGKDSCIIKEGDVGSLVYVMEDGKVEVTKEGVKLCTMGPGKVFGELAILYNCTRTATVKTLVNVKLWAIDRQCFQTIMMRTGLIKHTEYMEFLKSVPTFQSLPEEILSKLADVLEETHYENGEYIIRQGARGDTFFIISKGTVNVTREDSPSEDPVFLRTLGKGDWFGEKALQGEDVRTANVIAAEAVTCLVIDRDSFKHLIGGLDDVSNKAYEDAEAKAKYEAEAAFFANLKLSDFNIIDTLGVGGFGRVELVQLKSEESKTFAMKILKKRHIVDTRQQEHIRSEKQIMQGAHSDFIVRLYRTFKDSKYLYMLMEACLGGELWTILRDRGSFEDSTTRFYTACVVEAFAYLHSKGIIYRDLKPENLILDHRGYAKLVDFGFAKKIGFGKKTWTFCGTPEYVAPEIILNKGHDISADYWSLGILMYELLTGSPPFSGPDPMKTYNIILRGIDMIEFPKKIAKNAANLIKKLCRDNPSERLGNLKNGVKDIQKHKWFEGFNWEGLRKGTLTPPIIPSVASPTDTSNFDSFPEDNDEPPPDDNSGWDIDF

Abl (H396P) (h) = target: T8, Abl (H396P) (h) (Homo sapiens, UniProt P00519, H396P); assay: Kinase panel
T8 construct: purchased Millipore KinaseProfiler

CHK2(I157T)(h) = target: T9, CHK2(I157T)(h) (Homo sapiens, UniProt O96017, I157T); assay: Kinase panel
T9 construct: purchased Millipore KinaseProfiler
T9 sequence (O96017 whole entry I157T): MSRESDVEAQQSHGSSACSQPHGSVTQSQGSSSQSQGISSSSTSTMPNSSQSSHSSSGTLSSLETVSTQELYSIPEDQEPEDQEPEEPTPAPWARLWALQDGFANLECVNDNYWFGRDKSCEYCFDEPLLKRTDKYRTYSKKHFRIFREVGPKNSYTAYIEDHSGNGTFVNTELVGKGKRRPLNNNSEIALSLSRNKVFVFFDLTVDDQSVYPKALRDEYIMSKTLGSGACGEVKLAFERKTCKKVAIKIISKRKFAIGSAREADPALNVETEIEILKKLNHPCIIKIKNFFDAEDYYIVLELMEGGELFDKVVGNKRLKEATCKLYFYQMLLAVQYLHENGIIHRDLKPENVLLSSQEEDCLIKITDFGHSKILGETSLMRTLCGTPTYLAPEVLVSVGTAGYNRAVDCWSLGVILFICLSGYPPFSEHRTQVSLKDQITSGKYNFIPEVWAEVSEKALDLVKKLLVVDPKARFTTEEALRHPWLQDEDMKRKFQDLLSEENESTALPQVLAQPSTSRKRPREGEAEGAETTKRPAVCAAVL

With `Cn1ncc(Cl)c1-c1cc(C(=O)N[C@H](CN)Cc2cccc(F)c2)sc1Cl` [GSK2110183] the inhibition at 0.5 µM (BrSK1(h)) was -3%, the inhibition at 10 µM (BrSK1(h)) was 10% and the IC50 (PKCε) was > 1000 nM. It also gave an inhibition at 0.5 µM (CDK6/cyclinD3(h)) of 0%, an inhibition at 10 µM (CDK6/cyclinD3(h)) of 5% and an inhibition at 0.5 µM (PKCα(h)) of 2%. It also gave an inhibition at 10 µM (PKCα(h)) of 40%, an inhibition at 0.5 µM (CaMKIIδ(h)) of -20% and an inhibition at 10 µM (CaMKIIδ(h)) of 12%. For the same compound, the inhibition at 0.5 µM (PKCη(h)) was 78%, the inhibition at 10 µM (PKCη(h)) was 97% and the inhibition at 0.5 µM (Flt1(h)) was -35%. The inhibition at 10 µM (Flt1(h)) was -28%, the IC50 (PKCζ) was > 1000 nM and the inhibition at 0.5 µM (PKG1β(h)) was 101%. For the same compound, the inhibition at 10 µM (PKG1β(h)) was 101%, the inhibition at 0.5 µM (Abl (H396P) (h)) was -2% and the inhibition at 10 µM (Abl (H396P) (h)) was 10%. It also gave an inhibition at 0.5 µM (CHK2(I157T)(h)) of -4% and an inhibition at 10 µM (CHK2(I157T)(h)) of 0%.
With `Cn1ncc(Cl)c1-c1cc(C(=O)N[C@H](CN)Cc2ccc(F)c(F)c2)oc1Cl` [GSK2141795] the inhibition at 0.5 µM (BrSK1(h); 0.5 µM, read-out: % Inhibition) was -2%, the inhibition at 10 µM (BrSK1(h); 10 µM, read-out: % Inhibition) was 7% and the IC50 (PKCε) was > 1000 nM. The inhibition at 0.5 µM (CDK6/cyclinD3(h); 0.5 µM, read-out: % Inhibition) was -12%, the inhibition at 10 µM (CDK6/cyclinD3(h); 10 µM, read-out: % Inhibition) was -12% and the inhibition at 0.5 µM (PKCα(h); 0.5 µM, read-out: % Inhibition) was 10%. It also gave an inhibition at 10 µM (PKCα(h); 10 µM, read-out: % Inhibition) of 62%, an inhibition at 0.5 µM (CaMKIIδ(h); 0.5 µM, read-out: % Inhibition) of 53% and an inhibition at 10 µM (CaMKIIδ(h); 10 µM, read-out: % Inhibition) of 94%. For the same compound, the inhibition at 0.5 µM (PKCη(h); 0.5 µM, read-out: % Inhibition) was 86%, the inhibition at 10 µM (PKCη(h); 10 µM, read-out: % Inhibition) was 99% and the inhibition at 0.5 µM (Flt1(h); 0.5 µM, read-out: % Inhibition) was -4%. The inhibition at 10 µM (Flt1(h); 10 µM, read-out: % Inhibition) was 21%, the IC50 (PKCζ) was > 1000 nM and the inhibition at 0.5 µM (PKG1β(h); 0.5 µM, read-out: % Inhibition) was 101%. It also gave an inhibition at 10 µM (PKG1β(h); 10 µM, read-out: % Inhibition) of 100%, an inhibition at 0.5 µM (Abl (H396P) (h); 0.5 µM, read-out: % Inhibition) of 4% and an inhibition at 10 µM (Abl (H396P) (h); 10 µM, read-out: % Inhibition) of 1%. The inhibition at 0.5 µM (CHK2(I157T)(h); 0.5 µM, read-out: % Inhibition) was 55% and the inhibition at 10 µM (CHK2(I157T)(h); 10 µM, read-out: % Inhibition) was 88%.
